Experimental data: ChEMBL document CHEMBL1139552, “Naphthamidine urokinase plasminogen activator inhibitors with improved pharmacokinetic properties” (Bioorg Med Chem Lett, 2005)

How the values were obtained:
[1] = biological target: Urokinase-type plasminogen activator (Homo sapiens, UniProt P00749)
Description: Binding affinity value against urokinase plasminogen activator

[2] = Volume distribution value in sprague dawley rat was determined at a dosage of 3 mg/kg; format: ADME, organism-based; set-up: dose 3 mg/kg; conditions: in vivo
[3] = Bioavailability in rat (Sprague-Dawley) (dose 10 mg/kg); format: ADME, organism-based; conditions: in vivo
in vivo [4] = conditions: Sprague-Dawley, rat, 3 mg/kg
Description: (§1) Clearance value in sprague dawley rat was determined at a dosage of 3 mg/kg

[5] = Terminal half life value in sprague dawley rat was determined at a dosage of 3 mg/kg; format: ADME, organism-based; set-up: dose 3 mg/kg; conditions: in vivo
[6] = Area under the curve time curve value in sprague dawley rat was determined at a dosage of 3 mg/kg; format: ADME, organism-based; set-up: dose 3 mg/kg; conditions: in vivo
Trypsin = Trypsin (Sus scrofa, UniProt P00761); assay: Binding affinity value against trypsin
[7] = Binding affinity value against thrombin
[8] = rat, in vivo, 3 mg/kg
Description: as §1

Plasminogen = Plasminogen (Homo sapiens, UniProt P00747); assay: Binding affinity value against plasmin
[9] = biological target: Tissue-type plasminogen activator (Homo sapiens, UniProt P00750); assay: Binding affinity value against Tissue plasminogen activator
Kallikrein-1 = Kallikrein-1 (Homo sapiens, UniProt P06870)
Description: Binding affinity value against kallikrein

[10] = Terminal half life value in sprague dawley rat was determined at a intravenous dosage of 10 mg/kg; format: ADME, organism-based; set-up: dose 10 mg/kg, route intravenous; conditions: in vivo
[11] = Bioavailability in sprague dawley rat was determined at a dosage of 3 mg/kg; NT means not tested; format: ADME, organism-based; conditions: in vivo
[12] = Volume distribution value in sprague dawley rat was determined at a intravenous dosage of 10 mg/kg; format: ADME, organism-based; set-up: dose 10 mg/kg, route intravenous; conditions: in vivo
[13] = Area under the curve time curve value in sprague dawley rat was determined at a intravenous dosage of 10 mg/kg; format: ADME, organism-based; set-up: dose 10 mg/kg, route intravenous; conditions: in vivo
in vivo [14] = conditions: Sprague-Dawley, rat, iv, 10 mg/kg
Description: Clearance value in sprague dawley rat was determined at a intravenous dosage of 10 mg/kg

Tissue-type plasminogen activator, sequence (P00750 whole entry): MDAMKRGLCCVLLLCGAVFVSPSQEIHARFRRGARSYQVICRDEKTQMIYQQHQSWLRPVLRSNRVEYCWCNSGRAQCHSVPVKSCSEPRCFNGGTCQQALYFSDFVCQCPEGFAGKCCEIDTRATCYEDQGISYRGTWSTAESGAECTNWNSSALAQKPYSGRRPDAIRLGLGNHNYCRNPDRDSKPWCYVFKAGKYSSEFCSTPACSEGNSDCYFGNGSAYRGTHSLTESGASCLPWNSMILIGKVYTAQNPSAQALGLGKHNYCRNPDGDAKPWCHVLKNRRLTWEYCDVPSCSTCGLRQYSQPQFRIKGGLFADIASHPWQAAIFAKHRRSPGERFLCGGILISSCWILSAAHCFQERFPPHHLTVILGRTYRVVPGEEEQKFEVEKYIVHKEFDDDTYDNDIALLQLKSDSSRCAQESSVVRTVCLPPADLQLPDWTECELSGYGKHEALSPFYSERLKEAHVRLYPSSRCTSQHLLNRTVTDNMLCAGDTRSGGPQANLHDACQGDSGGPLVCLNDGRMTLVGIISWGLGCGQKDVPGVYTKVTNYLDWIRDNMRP
Plasminogen, sequence (P00747 97-580 limits assumed): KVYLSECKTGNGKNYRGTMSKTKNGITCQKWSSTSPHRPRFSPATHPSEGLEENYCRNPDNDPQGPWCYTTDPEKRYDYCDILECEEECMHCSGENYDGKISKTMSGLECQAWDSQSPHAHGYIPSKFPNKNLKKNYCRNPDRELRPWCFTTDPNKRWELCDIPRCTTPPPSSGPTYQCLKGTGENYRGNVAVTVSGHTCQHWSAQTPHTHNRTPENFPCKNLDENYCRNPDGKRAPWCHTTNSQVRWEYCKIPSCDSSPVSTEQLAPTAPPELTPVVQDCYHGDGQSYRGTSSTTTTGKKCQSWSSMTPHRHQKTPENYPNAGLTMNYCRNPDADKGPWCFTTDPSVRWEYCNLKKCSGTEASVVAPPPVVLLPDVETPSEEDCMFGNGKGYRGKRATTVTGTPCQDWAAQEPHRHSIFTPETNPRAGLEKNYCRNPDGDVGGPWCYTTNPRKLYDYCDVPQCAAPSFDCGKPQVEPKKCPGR
Plasminogen, sequence (P00747 581-810 limits assumed): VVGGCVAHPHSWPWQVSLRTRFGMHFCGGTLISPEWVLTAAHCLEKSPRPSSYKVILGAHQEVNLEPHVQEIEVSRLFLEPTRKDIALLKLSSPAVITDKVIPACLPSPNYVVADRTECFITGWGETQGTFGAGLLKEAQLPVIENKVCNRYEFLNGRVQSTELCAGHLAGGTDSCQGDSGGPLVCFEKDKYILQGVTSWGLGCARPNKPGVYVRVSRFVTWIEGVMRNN
Kallikrein-1, sequence (P06870 whole entry): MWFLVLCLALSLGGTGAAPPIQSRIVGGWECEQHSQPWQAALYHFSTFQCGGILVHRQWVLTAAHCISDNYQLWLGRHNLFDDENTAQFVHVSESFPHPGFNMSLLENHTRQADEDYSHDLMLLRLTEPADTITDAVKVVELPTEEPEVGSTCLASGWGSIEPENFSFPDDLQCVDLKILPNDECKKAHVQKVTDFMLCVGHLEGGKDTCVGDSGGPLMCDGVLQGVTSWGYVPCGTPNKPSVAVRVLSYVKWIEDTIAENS
Trypsin, sequence (P00761 whole entry): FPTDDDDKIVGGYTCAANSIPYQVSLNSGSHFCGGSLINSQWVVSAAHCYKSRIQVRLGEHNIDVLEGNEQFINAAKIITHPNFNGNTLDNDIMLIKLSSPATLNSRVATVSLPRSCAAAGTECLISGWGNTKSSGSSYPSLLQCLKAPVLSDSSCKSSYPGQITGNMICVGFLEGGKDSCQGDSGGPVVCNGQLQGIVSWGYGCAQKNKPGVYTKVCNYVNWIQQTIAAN

Compound | Ki [1] [nM] | Vd [2] [L/kg] | bioavailability [3] [%] | clearance (in vivo [4]) [mL/min/kg] | half-life [5] [min] | AUC ([6]; Sprague-Dawley, read-out: AUC) [µM·h] | Ki (Trypsin) [nM] | Ki [7] [nM] | AUC [6] [µM·h] | CI [8] [L/h/kg] | CI ([8]; Sprague-Dawley) [L/h/kg] | Ki (Plasminogen) [nM] | Ki [9] [µM] | Ki (Kallikrein-1) [nM] | half-life [10] [min] | AUC [11] [µM·h] | Vd [12] [L/kg] | AUC [13] [µM·h] | clearance (in vivo [14]) [mL/min/kg]
CN1CCc2ccc(C3CC3c3ccc4cc(C(=N)N)ccc4c3)cc2C1C(C)(C)C (stereo not drawn) | 548 | – | – | – | – | – | – | – | – | – | – | – | – | – | – | – | – | – | –
N=C(N)c1ccc2cc(C(=O)Nc3ccccc3)cc(Nc3ncccn3)c2c1 | 200 | 37.1 | 0 | 715 | 36 | 0.14 | 40 | 170 | – | – | – | – | – | – | – | – | – | – | –
N=C(N)c1ccc2cc(C(=O)Nc3ccccc3)cc(-c3ccoc3)c2c1 | – | 21.7 | 0 | – | 180 | – | 45 | 132 | 5 | 5 | – | – | – | – | – | – | – | – | –
N=C(N)c1ccc2cc(C3CC3c3ccccc3)cc(-c3ccoc3)c2c1 (stereo not drawn) | – | 2.4 | 10 | – | – | – | – | – | 14.5 | – | 4.2 | – | – | – | – | – | – | – | –
N=C(N)c1ccc2cc(C3CC3c3ccc4c(c3)C(C3CCCCC3)=NCC4)ccc2c1 (stereo not drawn) | – | 4.5 | 22 | 192 | 16.2 | 0.57 | 428 | 1140 | – | – | – | 594 | 4.02 | 206 | – | – | – | – | –
N=C(N)c1ccc2cc(CCc3ccccc3)cc(Br)c2c1 | – | 18 | > 32 | 63.3 | 198 | 1.75 | – | – | – | – | – | – | – | – | – | – | – | – | –
N=C(N)c1ccc2cc(C3CC3c3ccccc3)cc(Nc3ncccn3)c2c1 (stereo not drawn) | 5 | 10 | 0 | 352 | 19.8 | 0.23 | 54 | 48 | – | – | – | 243 | 5.05 | 54 | – | – | – | – | –
N=C(N)c1ccc2cc(/C=C/c3ccccc3)cc(Br)c2c1 | 820 | – | – | – | – | – | 480 | 920 | – | – | – | 1350 | 13.4 | 770 | – | – | – | – | –
N=C(N)c1ccc2cc(C3CC3c3ccccc3)ccc2c1 (stereo not drawn) | – | 23 | 30 | – | – | – | 720 | 1890 | 11.6 | 2.16 | – | 3520 | 69.1 | 2480 | 444 | – | – | – | –
N=C(N)c1ccc2cc(/C=C/c3ccccc3)cc(Nc3ncccn3)c2c1 | 10 | – | – | – | – | – | 84 | 395 | – | – | – | 277 | > 50 | 42 | – | – | – | – | –
CN1CCc2ccc(C3CC3c3ccc4cc(C(=N)N)ccc4c3)cc2C1C1CCCCC1 (stereo not drawn) | – | 18.7 | 27 | 142 | 91.8 | 0.53 | 31 | 996 | – | – | – | 811 | 18.9 | 295 | – | – | – | – | –
CC(C)C1=NCCc2ccc(C3CC3c3ccc4cc(C(=N)N)ccc4c3)cc21 (stereo not drawn) | – | 18.6 | 26 | 161 | 79.8 | 0.51 | 53 | 2140 | – | – | – | 1050 | 4.74 | 525 | – | – | – | – | –
N=C(N)c1ccc2cc(C(=O)Nc3ccccc3)cc(Br)c2c1 | 281 | 18.7 | 0 | 205 | 63 | – | 64 | 2660 | – | – | – | 1020 | 5.59 | 992 | – | 0.6 | – | – | –
N=C(N)c1ccc2cc(C3CC3c3ccc4c(c3)C(c3ccccc3)=NCC4)ccc2c1 (stereo not drawn) | – | – | – | – | – | – | 165 | 2120 | – | – | – | 955 | 7.04 | 336 | – | – | – | – | –
N=C(N)c1ccc2cc(CCc3ccccc3)ccc2c1 | 3180 | 9.8 | 60 | 113 | 60 | 1.14 | – | – | – | – | – | – | – | – | – | – | – | – | –
N=C(N)c1ccc2cc(C3CC3c3ccccc3)cc(Br)c2c1 (stereo not drawn) | 622 | 14.3 | 17 | 35 | 283 | 2.72 | 334 | 503 | – | – | – | 239 | 30.8 | 379 | – | – | – | – | –
N=C(N)c1ccc2cc(/C=C/c3ccccc3)ccc2c1 | – | – | – | – | – | – | 346 | 5270 | – | – | – | – | 34.6 | 991 | – | – | – | – | –
N=C(N)c1ccc2cc(CCc3ccccc3)cc(-c3ccoc3)c2c1 | 731 | 1.53 | 18 | – | – | – | – | – | 17.6 | – | 3.31 | – | – | – | – | – | – | – | –
N=C(N)c1ccc2cc(C(=O)Nc3ccccc3)ccc2c1 | – | 8.5 | 3 | – | 126 | – | 325 | 5640 | 8.2 | 2.8 | – | – | – | – | – | – | – | – | –
N=C(N)c1ccc2cc(CCc3ccccc3)cc(Nc3ncccn3)c2c1 | – | 13.6 | 0 | – | 120 | – | 167 | 191 | 4.2 | – | 4.7 | 570 | 5.79 | 156 | – | – | – | – | –
N=C(N)c1ccc2cc(/C=C/c3ccccc3)cc(-c3ccoc3)c2c1 | 168 | – | 0 | 21.7 | 37.2 | – | 96 | 237 | – | – | – | 134 | 4.46 | 83 | – | – | 1.2 | 5.8 | –
CC(C)C1=NCCc2cc(C3CC3c3ccc4cc(C(=N)N)ccc4c3)ccc21 (stereo not drawn) | – | – | 0 | – | 19.8 | – | – | – | – | – | – | – | – | – | – | – | 7.9 | 0.27 | 273
CC1c2cc(C3CC3c3ccc4cc(C(=N)N)ccc4c3)ccc2CCN1C (stereo not drawn) | – | 2.9 | 0 | 121 | 16.8 | 0.69 | – | – | – | – | – | – | – | – | – | – | – | – | –
CC(C)C1=NCCc2ccc([C@H]3CC3c3ccc4cc(C(=N)N)ccc4c3)cc21 (stereo partly drawn) | – | – | – | – | – | – | 30 | 1790 | – | – | – | 1480 | 10.4 | 640 | – | – | – | – | –
CC(C)Oc1cccc(C2CC2c2ccc3cc(C(=N)N)ccc3c2)c1 (stereo not drawn) | – | 19.3 | 23 | 37.7 | 355 | 3.48 | 141 | 1100 | – | – | – | 2450 | 21.9 | 1400 | – | – | – | – | –
CC(C)C1c2cc(C3CC3c3ccc4cc(C(=N)N)ccc4c3)ccc2CCN1C (stereo not drawn) | – | 10.3 | 55 | 216 | 33 | 0.37 | 90 | 1800 | – | – | – | 1300 | 6.23 | 576 | – | – | – | – | –
